Laboratory results published in patent publication US11332476B2, “Fms-like tyrosine kinase inhibitors” (3SM BIOTRON INC., priority 2018, dated 2022).

Target: T1, FLT3 (Homo sapiens, UniProt P36888)
T1 sequence (P36888 27-993): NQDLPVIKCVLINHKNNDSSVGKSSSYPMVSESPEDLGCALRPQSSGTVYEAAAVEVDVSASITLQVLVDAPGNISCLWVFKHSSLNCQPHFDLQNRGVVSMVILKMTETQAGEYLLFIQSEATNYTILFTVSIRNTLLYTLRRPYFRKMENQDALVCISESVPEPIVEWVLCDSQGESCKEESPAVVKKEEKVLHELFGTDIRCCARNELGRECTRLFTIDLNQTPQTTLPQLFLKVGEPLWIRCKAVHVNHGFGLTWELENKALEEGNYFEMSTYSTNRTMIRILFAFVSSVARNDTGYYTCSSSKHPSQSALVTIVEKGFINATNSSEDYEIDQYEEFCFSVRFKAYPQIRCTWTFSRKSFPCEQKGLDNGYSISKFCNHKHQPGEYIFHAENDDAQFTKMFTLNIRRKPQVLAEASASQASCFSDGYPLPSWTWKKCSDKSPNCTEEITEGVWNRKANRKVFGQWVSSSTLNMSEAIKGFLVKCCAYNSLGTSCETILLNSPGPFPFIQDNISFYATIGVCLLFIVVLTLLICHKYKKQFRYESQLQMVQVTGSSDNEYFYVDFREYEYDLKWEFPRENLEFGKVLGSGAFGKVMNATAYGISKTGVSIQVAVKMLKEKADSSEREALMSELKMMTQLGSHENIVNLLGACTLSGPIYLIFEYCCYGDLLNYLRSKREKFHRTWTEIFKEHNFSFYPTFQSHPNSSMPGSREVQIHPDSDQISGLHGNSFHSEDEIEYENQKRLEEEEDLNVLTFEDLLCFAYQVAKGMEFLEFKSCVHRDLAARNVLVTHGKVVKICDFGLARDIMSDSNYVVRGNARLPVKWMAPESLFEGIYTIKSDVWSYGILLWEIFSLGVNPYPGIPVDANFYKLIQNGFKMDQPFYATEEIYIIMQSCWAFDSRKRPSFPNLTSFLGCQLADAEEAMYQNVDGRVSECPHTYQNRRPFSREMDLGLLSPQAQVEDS
Test: Inhibition of FLT3, 33P-ATP kinase assay with filter-binding detection
Type: biochemical
Details: 33P-ATP 10 uM, 2 hours at room temperature, filter-binding method
Experimental: Prepare indicated substrate in freshly prepared Base Reaction Buffer (20 mM Hepes (pH 7.5), 10 mM MgCl2, 1 mM EGTA, 0.02% Brij35, 0.02 mg/ml BSA, 0.1 mM Na3VO4, 2 mM DTT, 1% DMSO). Deliver any required cofactors to the substrate solution above. Deliver indicated kinase into the substrate solution and gently mix. The testing compounds in DMSO was added into the kinase reaction mixture by Acoustic technology (Echo550; nanoliter range) and incubated for 20 minutes at room temperature. Deliver 33P-ATP (specific activity […]) into the reaction mixture to initiate the reaction. Incubate kinase reaction for 2 hours at room temperature. Reactions are spotted onto P81 ion exchange paper. Detect kinase activity by filter-binding method.
Inhibition of FLT3 with 4-Quinolone Derivatives

IC50 [µM]	Structure (SMILES)
0.501 to 1	O=c1c2cc(F)ccc2sc2c(NCCN3CCCC3)nc3ccccc3c12 [compound 7755, 10-fluoro-6-(2-(pyrrolidin-1-yl)ethylamino)-12H-thiochromeno[2,3-c]quinolin-12-one]
> 1	O=c1c2cc(F)ccc2sc2c(Nc3ccccn3)nc3ccccc3c12 [compound 7760, 10-fluoro-6-(pyridin-2-ylamino)-12H-thiochromeno[2,3-c]quinolin-12-one]
> 1	O=c1c2cc(F)ccc2sc2c(Nc3ccncc3)nc3ccccc3c12 [compound 7763, 10-fluoro-6-(pyridin-4-ylamino)-12H-thiochromeno[2,3-c]quinolin-12-one]
> 1	O=c1c2cc(F)ccc2sc2c(NCCNc3ccccn3)nc3ccccc3c12 [compound 7765, 10-fluoro-6-((2-(pyridin-2-ylamino)ethyl)amino)-12H-thiochromeno[2,3-c]quinolin-12-one]
< 0.051	NCCNc1nc2ccccc2c2c(=O)c3cc(Cl)ccc3sc12 [compound 7767, 6-(2-aminoethylamino)-10-cholor-12H-thiochromeno[2,3-c]quinolin-12-one]

Second part, the compound before the results:

Structure (SMILES)	IC50 [µM]
O=c1c2cc(F)ccc2sc2c(NCCCN3CCCC3)nc3ccccc3c12 [compound 7753, 10-fluoro-6-(3-(pyrrolidin-1-yl)propylamino)-12H-thiochromeno[2,3-c]quinolin-12-one]	> 1
NCCNc1nc2ccccc2c2c(=O)c3cc(F)ccc3sc12 [compound 7754, 6-(2-aminoethylamino)-10-fluoro-12H-thiochromeno[2,3-c]quinolin-12-one]	< 0.051
O=c1c2cc(F)ccc2sc2c(NCCN3CCOCC3)nc3ccccc3c12 [compound 7756, 10-fluoro-6-((2-morpholinoethyl)amino)-12H-thiochromeno[2,3-c]quinolin-12-one]	> 1
CCN1CCN(c2nc3ccccc3c3c(=O)c4cc(F)ccc4sc23)CC1 [compound 7757, 6-(4-ethylpiperazin-1-yl)-10-fluoro-12H-thiochromeno[2,3-c]quinolin-12-one]	0.201 to 0.5
O=c1c2cc(F)ccc2sc2c(N3CCN(Cc4ccccc4)CC3)nc3ccccc3c12 [compound 7758, 6-(4-benzylpiperazin-1-yl)-10-fluoro-12H-thiochromeno[2,3-c]quinolin-12-one]	> 1
O=c1c2cc(F)ccc2sc2c(Nc3cccnc3)nc3ccccc3c12 [compound 7761, 10-fluoro-6-(pyridin-3-ylamino)-12H-thiochromeno[2,3-c]quinolin-12-one]	> 1
O=c1c2cc(F)ccc2sc2c(-n3ccnc3)nc3ccccc3c12 [compound 7766, 10-fluoro-6-(1H-imidazol-1-yl)-12H-thiochromeno[2,3-c]quinolin-12-one]	> 1
